Data: patent US8551456B2, “Combination therapy and methods for treating bacterial biofilms” (priority 2010, dated 2013)
“Also recorded” adds a separate entry of the source.

How the values were obtained:
[1] = tested on: P. aeruginosa wild-type PAO1 biofilms; assay: Combined TMP and antibiotic treatment of biofilms in the dark, CSLM LIVE/DEAD; assay type: cell-based, Pseudomonas aeruginosa; conditions: for gain in killing by the addition of TMP to the antibiotic / red (dead) staining with antibiotic + TMP versus antibiotic alone (FIGS. 5A and 5B) / Effect on P. aeruginosa biofilm cells, TMP + Antibiotic, pH 7: TMP 225 μM 10 min then antibiotic 100 μg ml^−1 2 h
Protocol: Biofilms were grown on glass slides as described above. […] Slides were incubated in tobramycin for 2 h at 37° C. All incubations were performed in the dark. Cell viability within biofilms was assessed using the LIVE/DEAD BacLight bacterial viability kit and visualized with an Olympus FV1000 CSLM as described above.
Bacterial viability was determined using the LIVE/DEAD BacLight Bacterial Viability assay. The images show horizontal optical sections from the midpoint of the biofilms flanked by vertical optical sections in biofilms treated with panel A showing tobramycin alone and panel B showing TMP+tobramycin.
Using the same protocol used in Example 3 for tobramycin, additional antibiotics were tested to aid in the elucidation of the mechanism of bacterial biofilm disruption in the absence of photoactivation.
Bacterial viability was determined using the LIVE/DEAD BacLight Bacterial Viability assay. Cells staining red are considered dead while cells staining green are alive. […] In summary, panels C, E, G, I, K and M received the respective antibiotic alone, and panels B, D, F, H, J, L and N were treated with the combination of TMP and antibiotic.

[2] = tested on: P. aeruginosa PAO1 wild-type biofilms; assay: CSLM of static biofilms with LIVE/DEAD BacLight viability assay; assay type: cell-based, Pseudomonas aeruginosa
Protocol: (§1) P. aeruginosa PAO1 wild-type and isogenic pqsA mutant strain were obtained from Eb Pesci (East Carolina University School of Medicine). P. aeruginosa strains were grown aerobically with shaking in Minimal Salts medium (40 mM K2HPO4, 20 mM KH2PO4, 7.6 mM [NH4]2SO4, 0.2 mM MgSO4.7H2O, 9.2×10^−3 mMFeCl3.6H2O, 0.2% [wt/vol] glucose; adjusted pH 7.0) at 37° C. (4, 17). For static biofilms, P. aeruginosa strains were grown overnight in Minimal Salts medium at 37° C. with shaking. The following day, bacteria were diluted in fresh media to an OD590nm of 0.15. Five hundred microliters of the standardized culture was added to sterile polystyrene cuvettes and incubated statically for 24 h at 37° C. For examination of static biofilms using confocal laser scanning microscopy (CSLM), sterile microscope slides were submerged in standardized cell suspensions and incubated statically at 37° C. for 24 h.
(§2) Samples were irradiated for various exposure times at an intensity of 192 Joules/cm^2.
Negative control slides were transferred to 50 ml tubes containing only PBS. […] Bacterial viability was assessed in biofilm cultures using the LIVE/DEAD BacLight bacterial viability assay (Molecular Probes Inc., Eugene, Oreg.), containing SYTO9 and propidium iodide dyes. Biofilms were visualized with an Olympus FV1000 CSLM (Olympus America, Center Valley, Pa.) using a 60× oil immersion objective. Biofilm images were acquired in 0.4 μm optical sections for the entire thickness of the biofilm.
Bacterial viability was determined using the LIVE/DEAD BacLight Bacterial Viability assay. The cells in panels C-F show significant staining in red (considered dead) while cells in panels A, B, G and H show predominate staining in green (alive). […] The few remaining attached cells were nonviable.

[3] = tested on: P. aeruginosa PAO1 planktonic cell populations; conditions: TMP 2.5 mg ml^−1; cited from earlier work
[4] = tested on: P. aeruginosa PAO1 wild-type biofilms; assay: Viable plate counts of cells from static biofilms after TMP and irradiation; assay type: cell-based, Pseudomonas aeruginosa; conditions: wild-type PAO1, 225 μM TMP, 10 min of irradiation
Protocol: as §1, §2
(§3) Static biofilms formed in sterile polystyrene cuvettes, as described above, were used to quantify cell survival. […] Cells released from the biofilm following treatment were collected from the supernatant by centrifugation and resuspended in PBS. The remaining attached biofilm was washed once and resuspended in PBS. The number of viable cells in the supernatant and attached biofilms following treatment were determined by plating on LB (1.5% agar) plates that were incubated for 24 h at 37° C.
(§4) Cells were collected from the supernatant of treated biofilms, as well as from the remaining attached biofilm. Cell suspensions were diluted and plated onto LB (1.5% agar) plates and incubated 24 h at 37° C. CFU were used to determine the surviving fraction. […] The recovered supernatants contained the cells sloughed off as the result of TPM exposure and irradiation.

[5] = tested on: P. aeruginosa pqsA mutant biofilms; assay: as above; assay type: cell-based, Pseudomonas aeruginosa; conditions: 225 μM TMP, irradiated 10 min
Protocol: as §1, §2, §3, §4

S. aureus = conditions: cited from earlier work
[6] = tested on: P. aeruginosa pqsA mutant biofilms; assay type: cell-based, Pseudomonas aeruginosa
Protocol: as §1, §2
Negative control slides were transferred to 50 ml tubes containing only PBS. […] Bacterial viability was assessed in biofilm cultures using the LIVE/DEAD BacLight bacterial viability assay (Molecular Probes Inc., Eugene, Oreg.), containing SYTO9 and propidium iodide dyes. […]
Bacterial viability was determined using the LIVE/DEAD BacLight Bacterial Viability assay.

[7] = tested on: wild-type PAO1 isolates grown in biofilms; conditions: cited from earlier work
pUCP18 plasmid DNA = assay: TMP induced degradation of plasmid DNA, agarose gel electrophoresis; assay type: biochemical; conditions: 100 or 225 μM TMP
Protocol: Plasmid DNA with and without TMP was irradiated for designated times. Prior to light exposure, samples of DNA supplemented with TMP were collected and incubated in the dark for comparison. DNA was examined using agarose gel electrophoresis.
The untreated control samples had the three expected forms of plasmid DNA: covalently closed circles, relaxed circular, and linear cut (FIG. 3: lanes 1 and 7). Plasmid DNA exposed to light only appeared similar to the control (FIG. 3: lanes 2 and 8).

[8] = tested on: extracellular DNA in P. aeruginosa wild-type biofilms; assay: Quantification of extracellular biofilm DNA with DNA stains such as Pico Green; assay type: cell-based, Pseudomonas aeruginosa; conditions: data not shown, possible competition of TMP with Pico Green

O=C(O)c1cn(C2CC2)c2cc(N3CCNCC3)c(F)cc2c1=O [Ciprofloxacin]
gain in killing by the addition of TMP to the antibiotic ([1]; dark): no gain in killing | red (dead) staining with antibiotic + TMP versus antibiotic alone (FIGS. 5A and 5B) ([1]; dark): little or no increase in red staining | Effect on P. aeruginosa biofilm cells, TMP + Antibiotic, pH 7 ([1]; dark): +

C[n+]1ccc(-c2c3nc(c(-c4cc[n+](C)cc4)c4ccc([nH]4)c(-c4cc[n+](C)cc4)c4nc(c(-c5cc[n+](C)cc5)c5ccc2[nH]5)C=C4)C=C3)cc1.Cc1ccc(S(=O)(=O)[O-])cc1.Cc1ccc(S(=O)(=O)[O-])cc1.Cc1ccc(S(=O)(=O)[O-])cc1.Cc1ccc(S(=O)(=O)[O-])cc1 [TMP, 5,10,15,20-tetrakis(1-methyl-pyridino)-21H,23H-porphine, tetra-p-tosylate salt]
biofilm density and cell viability (CSLM, LIVE/DEAD) ([2]; wild-type PAO1, 100 μM TMP, irradiated 10 min): decrease in biofilm density and the majority of cells within the biofilm were non-viable | biofilm disruption and clearance (CSLM, LIVE/DEAD) ([2]; wild-type PAO1, 225 μM TMP, 10 min of irradiation): nearly complete disruption and clearance; also recorded: completely disrupted with few cells remaining attached | biofilm structure and cell viability without photoactivation (dark toxicity) ([2]; wild-type PAO1, 225 μM TMP, dark): expanded in volume without a loss of cell viability; also recorded: no dark toxicity; also recorded: did not lead to clearance of wild-type biofilms | toxicity to human fibroblasts (human fibroblasts): does not appear to be toxic to human fibroblasts | reduction of planktonic cell populations [3]: > 10^2 cfu ml^−1 | decrease in viable cells in the attached biofilm population ([4]; attached cells): 4.1 log10 | reduction in the number of viable cells in the recovered supernatants ([4]; supernatant cells): 4.5 log10 | decrease in cell viability of attached cells ([5]; attached cells): 3.9 log10 | reduction in cell viability of cells collected from supernatants ([5]; supernatant cells): 4.2 log10 | S. aureus survival (S. aureus; TMP alone): reduce S. aureus survival | effect on established S. aureus biofilms (S. aureus; TMP combined with vancomycin): disrupt established biofilms | cell viability and biofilm architecture without photoactivation ([6]; 225 μM TMP, dark): did not affect cell viability or disrupt the architecture | cell viability of attached cells (CSLM, LIVE/DEAD) ([6]; 100 or 225 μM TMP, irradiated 10 min): decrease in cell viability of attached cells; also recorded: high levels of killing | reduction of wild-type PAO1 isolates grown in biofilms ([7]; TMP 5.0 mg ml^−1, irradiated for 5 min): 1.2 log10 | TMP concentration necessary to achieve the same level of killing in bacteria enmeshed within biofilms ([7]; same level of killing as planktonic (>10^2 cfu ml^−1)): 5.0 mg/mL | degradation of plasmid DNA (pUCP18 plasmid DNA; irradiation for 5 or 30 min): complete degradation | migration of plasmid DNA in gel without photoactivation (pUCP18 plasmid DNA; nonirradiated): retarded migration of DNA; also recorded: migration was retarded | biofilm DNA after TMP and light ([8]; TMP and light): decrease was observed in biofilm DNA | biofilm DNA after TMP in the absence of light ([8]; TMP, no light): decrease in biofilm DNA

CC1(C)S[C@@H]2[C@H](NC(=O)C(C(=O)O)c3ccccc3)C(=O)N2[C@H]1C(=O)O (stereo partly drawn) [carbenicillin]
gain in killing by the addition of TMP to the antibiotic ([1]; dark): no enhanced killing | red (dead) staining with antibiotic + TMP versus antibiotic alone (FIGS. 5A and 5B) ([1]; dark): little or no increase in red staining | Effect on P. aeruginosa biofilm cells, TMP + Antibiotic, pH 7 ([1]; dark): −

NC[C@H]1O[C@H](O[C@H]2[C@H](O)[C@@H](O[C@H]3O[C@H](CO)[C@@H](O)[C@H](N)[C@H]3O)[C@H](N)C[C@@H]2N)[C@H](O)[C@@H](O)[C@@H]1O [kanamycin]
Effect on P. aeruginosa biofilm cells, TMP + Antibiotic, pH 7 ([1]; dark): +

NC[C@H]1O[C@H](O[C@H]2[C@H](O)[C@@H](O[C@H]3O[C@H](CO)[C@@H](O)[C@H](N)[C@H]3O)[C@H](N)C[C@@H]2N)[C@H](N)C[C@@H]1O [tobramycin]
cell viability and biofilm clearance, TMP then antibiotic ([1]; TMP 225 μM 10 min then tobramycin 100 μg ml^−1 2 h, dark): predominate amount of cells staining red (dead); also recorded: substantial clearance of the biofilms and greater loss of cell viability throughout the biofilms than with either single treatment; also recorded: significant biofilm clearance and enhanced killing of cells | effect of pH on the combination of tobramycin and TMP ([1]; dark conditions, pH range of 4.0 to 8.0): enhancement of killing | cell viability and biofilm clearance, antibiotic alone ([1]; tobramycin alone 100 μg ml^−1, 2 h, dark, no TMP): cells predominately staining green (alive); also recorded: reduction in cell viability which was limited to cells near the surface of the biofilms; also recorded: did not result in substantial biofilm clearance and led to minimal killing of biofilm associated cells

CN[C@H](CC(C)C)C(=O)N[C@H]1C(=O)N[C@@H](CC(N)=O)C(=O)N[C@H]2C(=O)N[C@H]3C(=O)N[C@H](C(=O)N[C@H](C(=O)O)c4cc(O)cc(O)c4-c4cc3ccc4O)[C@H](O)c3ccc(c(Cl)c3)Oc3cc2cc(c3O[C@@H]2O[C@H](CO)[C@@H](O)[C@H](O)[C@H]2O[C@H]2C[C@](C)(N)[C@H](O)[C@H](C)O2)Oc2ccc(cc2Cl)[C@H]1O [vancomycin]
gain in killing by the addition of TMP to the antibiotic ([1]; dark): substantially enhanced killing | red (dead) staining with antibiotic + TMP versus antibiotic alone (FIGS. 5A and 5B) ([1]; dark): predominately red staining

gentamicin
gain in killing by the addition of TMP to the antibiotic ([1]; dark): behaved similarly to tobramycin | red (dead) staining with antibiotic + TMP versus antibiotic alone (FIGS. 5A and 5B) ([1]; dark): significant increased red staining
